Data on 18 molecules can be found in ChEMBL document CHEMBL4806969, “Modulators of mas-related g-protein receptor x4 and related products and methods” (2020).

A word on the AUC: it is concentration integrated over time. A higher AUC goes with more exposure. As a reminder, the half-life is the time in which the quantity being followed falls by half. A low value points to fast loss. As usually defined, the IC50 is the concentration that inhibits the measured activity by half. In general, Cmax refers to the peak of the concentration-time curve.

Structures are written as SMILES. Calls of active or inactive are those of the source. The rule behind the calls is not given here.

A short description of data set [1]: AUC in C57BL/6 mouse at 50 mg/kg, po measured upto 24 hrs by LC-MS/MS analysis. The data set is classed as ADME, organism-based. Also noted: route oral, dose 50 mg/kg, time <=24. To be noted: in vivo.
The nature of data set [2]: Half life in C57BL/6 mouse at 50 mg/kg, po measured upto 24 hrs by LC-MS/MS analysis. In kind it is ADME, organism-based. The settings on record: in vivo.
Data set [3] deals with T1, Mas-related G-protein coupled receptor member X4 (Homo sapiens, UniProt Q96LA9). In words: Antagonist activity at human MRGPRX4 expressed in HEK cells incubated in dark for 1 hr at 37 degree C and then incubated for 30 mins at room temperature in presence of […] bilirubin by HTRF assay. The data set is classed as functional, cell-based.
T1 sequence (Q96LA9 whole entry): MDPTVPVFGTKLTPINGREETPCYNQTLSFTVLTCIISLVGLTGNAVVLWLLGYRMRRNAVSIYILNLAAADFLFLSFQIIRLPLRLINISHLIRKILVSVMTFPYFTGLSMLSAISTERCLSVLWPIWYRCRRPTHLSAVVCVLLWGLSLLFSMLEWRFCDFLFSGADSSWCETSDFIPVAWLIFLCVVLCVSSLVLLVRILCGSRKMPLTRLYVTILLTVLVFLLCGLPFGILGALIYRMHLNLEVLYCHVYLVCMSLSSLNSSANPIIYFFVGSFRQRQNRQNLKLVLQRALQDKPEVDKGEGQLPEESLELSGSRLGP
For data set [4], the target named is T1, Mas-related G-protein coupled receptor member X4. Kind of data set: Antagonist activity at human MRGPRX4 expressed in HEK cells incubated in dark for 1 hr at 37 degree C and then incubated for 30 mins at room temperature in presence of 20 uM of deoxycholic acid by HTRF assay. The data set is classed as functional, cell-based. For orientation: Time-resolved FRET reads energy transfer from a long-lived donor to a nearby acceptor.

Data set [5] shares this target. In words: Antagonist activity at human MRGPRX4 expressed in HEK cells incubated in dark for 1 hr at 37 degree C and then incubated for 30 mins at room temperature in presence of 50 uM of obeticholic acid by HTRF assay. The data set is classed as functional, cell-based.
For data set [6] the target is unchanged. Kind of data set: Antagonist activity at human MRGPRX4 expressed in HEK cells incubated in dark for 1 hr at 37 degree C and then incubated for 30 mins at room temperature in presence of 10 uM of bilirubin by HTRF assay. The data set is classed as functional, cell-based.
A short description of data set [7]: Cmax in C57BL/6 mouse at 50 mg/kg, po measured upto 24 hrs by LC-MS/MS analysis. The data set is classed as ADME, organism-based. Also noted: route oral, dose 50 mg/kg, time <=24. The settings on record: in vivo.
Data set [8] deals with T1, Mas-related G-protein coupled receptor member X4. In words: Antagonist activity at human MRGPRX4 expressed in HEK cells incubated in dark for 1 hr at 37 degree C and then incubated for 30 mins at room temperature in presence of 100 uM of conjugated bilirubin by HTRF assay. In kind it is functional, cell-based.
The target is the same in data set [9]. Kind of data set: Agonist activity at human MRGPRX4 expressed in HEK cells using preincubated compound in dark freezer condition for 24 hrs by HTRF assay. The data set is classed as functional, cell-based. To be noted: filed as agonist.
For data set [10] the target is unchanged. Kind of data set: Agonist activity at human MRGPRX4 expressed in HEK cells using preincubated compound in dark at room temperature for 24 hrs by HTRF assay. The data set is classed as functional, cell-based.
For data set [11] the target is unchanged. Kind of data set: Agonist activity at human MRGPRX4 expressed in HEK cells using preincubated compound in blue light at room temperature for 24 hrs by HTRF assay. The data set is classed as functional, cell-based.
The target is the same in data set [12]. Kind of data set: Agonist activity at human MRGPRX4 expressed in HEK cells using preincubated compound in light at room temperature for 24 hrs by HTRF assay. In kind it is functional, cell-based.
Data set [13] is described as follows: Stability of compound assessed as parent compound remaining after stored for 24 hrs in blue light condition at room temperature by LC-MS/MS analysis. In kind it is physicochemical.
Data set [14] is described as follows: Stability of compound assessed as parent compound remaining after stored for 24 hrs in normal lab light condition at room temperature by LC-MS/MS analysis. In kind it is physicochemical.
The nature of data set [15]: Stability of compound assessed as parent compound remaining after stored for 24 hrs in dark freezer condition by LC-MS/MS analysis. The data set is classed as physicochemical. The settings on record: read-out: Stabilty.
Data set [16] can be described thus: Stability of compound assessed as parent compound remaining after stored for 24 hrs in dark at room temperature by LC-MS/MS analysis. The data set is classed as physicochemical.
The target in data set [17] is T1, Mas-related G-protein coupled receptor member X4. In words: Antagonist activity at human MRGPRX4 expressed in HEK cells incubated in dark for 1 hr at 37 degree C and then incubated for 30 mins at room temperature in presence of 50 uM of urobilin by HTRF assay. The data set is classed as functional, cell-based.

`O=C(O)c1cccc(COc2ccc(Cl)cc2Cl)c1F`: in data set [1], the AUC at 24 h stood at 1500 µM·h. The molecule further had a half-life in [2] of 354 min. Also, the IC50 in [3] is < 100 nM.

In data set [1], `O=C(O)c1cccc(COc2ccc(Cl)cc2Cl)c1` displayed an AUC at 24 h of 376 µM·h. In addition, the half-life in data set [2] is 252 min. Besides, the IC50 in data set [4] was 130 nM; in data set [3] it was < 100 nM.

Take `Cc1cc(C(F)(F)F)ccc1OCc1cccc(C(=O)O)c1F`: the IC50 in [5] was 22 nM; in data set [6], 17 nM; in [4], 75 nM; in data set [8] it was 12 nM; in data set [3] it was < 100 nM. In data set [1], this molecule yielded an AUC at 24 h of 1200 µM·h. In data set [7], this molecule returned a Cmax of 230 µM. The same molecule had a half-life in data set [2] of 288 min.

As for `C=CC1=C(C)/C(=C/c2[nH]c(Cc3[nH]c(/C=C4\NC(=O)C(C)=C4C=C)c(C)c3CCC(=O)O)c(CCC(=O)O)c2C)NC1=O` [BILIRUBIN], the result in data set [9] was Active. Further, the result in [10], in data set [11] and in data set [12] was inactive. Moreover, the Stabilty entry in [13], in [14] and in [16] was “Unstable” throughout. In data set [15], the remaining at 24 h came to 44%.

For the molecule `Cc1cc(COc2ccc(C(F)(F)F)cc2C)cc(C(=O)O)c1`, the AUC at 24 h in [1] was 572 µM·h. The half-life in data set [2] was 216 min. Moreover, the IC50 in [3] was < 100 nM.

In data set [1], `O=C(O)c1cc(COc2ccc(C(F)(F)F)cc2Cl)ccc1F` yielded an AUC at 24 h of 1070 µM·h. This molecule also showed a half-life in data set [2] of 282 min. For the same molecule, the IC50 in data set [3] is < 100 nM.

In data set [1], `CCc1cc(COc2ccc(C(F)(F)F)cc2Cl)nc(C(=O)O)c1` came in with an AUC at 24 h of 4700 µM·h. This molecule also had a half-life in [2] of 324 min. Moreover, the concentration for half-maximal inhibition (IC50) was 16 nM in [4] and < 100 nM in [3].

For the molecule `O=C(O)c1cccc(COc2ccc(C(F)(F)F)cc2Cl)n1`, the AUC at 24 h in data set [1] is 880 µM·h. In data set [2], the half-life is 192 min. The half-maximal inhibitory concentration (IC50) in data set [3] was < 100 nM.

Molecule `O=C(O)c1cccc(COc2ccc(C(F)(F)F)cc2Cl)c1F` registered an AUC at 24 h in data set [1] of 2150 µM·h. Also, in data set [2], the half-life was 672 min. Also, the IC50 in [3] was < 100 nM.

`O=C(O)c1cc(F)cc(COc2ccc(C(F)(F)F)cc2Cl)c1` yielded an AUC at 24 h in data set [1] of 1040 µM·h. For the same molecule, the half-life in data set [2] is 288 min. For the same molecule, in [3], the IC50 is < 100 nM.

In [1], `O=C(O)c1cccc(COc2ccc(Cl)cc2Cl)n1` yielded an AUC at 24 h of 1210 µM·h. The molecule further showed a half-life in data set [2] of 180 min. In [3], the IC50 was < 100 nM.

For `O=C(O)c1cccc(COc2ccc(Cl)cc2C(F)(F)F)n1`, the IC50 in data set [5] is 5 nM; in [3], < 100 nM.

Take `Clc1ccc(OCc2cccc(-c3nnn[nH]3)c2)c(Cl)c1Cl`: the IC50 in data set [17] was 6 nM; in data set [3], < 100 nM.

As to `N#Cc1cc(COc2ccc(Cl)cc2Cl)cc(C(=O)O)c1`, the IC50 in data set [5] was 6 nM; in data set [3] it was < 100 nM.

In the case of `O=C(O)c1cccc(COc2ccc(Cl)c(Cl)c2Cl)c1`, the AUC at 24 h in data set [1] was 219 µM·h. The same molecule gave a half-life in [2] of 240 min. Also, the IC50 was 24 nM in data set [4] and < 100 nM in data set [3].

Take `Cc1cc(COc2ccc(C(F)(F)F)cc2Cl)cc(C(=O)O)c1`: the AUC at 24 h in data set [1] worked out at 974 µM·h. Further, the half-life in data set [2] is 276 min. In [3], the IC50 is < 100 nM.

In data set [1], `O=C(O)c1cccc(COc2ccc(C(F)(F)F)cc2Cl)c1` gave an AUC at 24 h of 615 µM·h. This molecule gave a half-life in [2] of 276 min. Further, the concentration for half-maximal inhibition (IC50) in data set [4] was 46 nM; in [3] it was < 100 nM.

`O=C(O)c1c(F)ccc(COc2ccc(C(F)(F)F)cc2Cl)c1F`: the IC50 in [3] is < 100 nM.
